The record followed here is ChEMBL document CHEMBL1146473, “Tyromycic acids B-E, new lanostane triterpenoids from the mushroom Tyromyces fissilis” (J Nat Prod, 2004).

For experiment [1], the system named is Radical scavenging activity. Description: Antioxidant activity assessed as DPPH radical scavenging activity. The class given is functional.
For experiment [2], the system named is Human immunodeficiency virus 1. Kind of experiment: Antiviral activity against HIV1 infected in human MT4 cells. Type of experiment: functional, organism-based.

Active and inactive are the calls of the source. The calls are words filed in the database; no cut-off is given here.

Consider `CC(=O)O[C@@H]1C2=C(CC[C@H]3C(C)(C)C(=O)CC[C@]23C)[C@]2(C)CC[C@H]([C@H](C)CC/C=C(\C)C(=O)O)[C@@]2(C)[C@@H]1OC(C)=O`, for which the result in experiment [1] and in experiment [2] was inactive.

`C/C(=C\CC[C@@H](C)[C@H]1CC[C@@]2(C)C3=CC[C@H]4C(C)(C)C(=O)CC[C@]4(C)C3=C[C@@H](O)[C@]12C)C(=O)O`: the outcome in experiment [1] and in experiment [2] was inactive.

For `CC(=O)O[C@@H]1C=C2C(=CC[C@H]3C(C)(C)[C@@H](O)CC[C@]23C)[C@]2(C)CC[C@H]([C@H](C)CC/C=C(\C)C(=O)O)[C@@]12C`, the outcome in experiment [1] and in experiment [2] was inactive.
